pIC50: −log10 of the molar value.
How the values were obtained:
hNav1.7 [1] = biological target: T1, hNav1.7 (Homo sapiens (Human), UniProt Q15858); assay: Tritiated compound binding to membranes from cells heterologously expressing hNav1.7 and the β1 subunit (LBA); details: competitive binding vs [3H]compound, membranes with hNav1.7 and β1 subunit; read-out: Nav1.7 LBA EVO IC50
Description: Example 39A. Tritiated Compound Binding to Membranes Isolated from Cells that Heterologously Express hNav1.7 and the β1 Subunit
Preparation of membranes containing recombinantly expressed sodium channels: Frozen recombinant cell pellets were thawed on ice and diluted to 4 times the cell pellet weight with ice cold 50 mM Tris HCl, pH 7.4 buffer. The cell suspensions were homogenized on ice using a motorized glass dounce homogeniser. Homogenates were further diluted 8.4 times with ice cold 50 mM Tris HCl, pH 7.4 buffer and then centrifuged at 200×g at 4° C. for 15 min. The supernatants were collected and centrifuged at 10000×g at 4° C. for 50 min. The pellets were then re-suspended in 100 mM NaCl, 20 mM Tris HCl, pH 7.4 buffer containing 1% v/v protease inhibitors (Calbiochem) and re-homogenized on ice. The homogenized membranes were then processed through a syringe equipped with a 26 gauge needle. Protein concentrations were determined by Bradford Assay and the membranes were stored at −80° C.
Saturation experiments. A competitive NaV1.7 inhibitor having a methyl group was tritiated. Three tritiums were incorporated in place of methyl hydrogens to generate [^3H]compound. Binding of this radioligand was performed in 5 mL borosilicate glass test tubes at room temperature. Binding was initiated by adding membranes to increasing concentrations of [^3H]compound in 100 mM NaCl, 20 mM Tris HCl, pH 7.4 buffer containing 0.01% w/v bovine serum albumin (BSA) for 18 h. Non-specific binding was determined in the presence of 1 μM unlabeled compound. After 18 h, the reactants were filtered through GF/C glass fiber filters presoaked in 0.5% w/v polyethylene imine. Filters were washed with 15 mL ice cold 100 mM NaCl, 20 mM Tris HCl, pH7.4 buffer containing 0.25% BSA to separate bound from free ligand. [^3H]compound bound to filters was quantified by liquid scintillation counting.
Binding reactions were performed in 96-well polypropylene plates at room temperature for 18 h. In 360 μL, membranes were incubated with 100 pM [^3H]compound and increasing concentrations of Test Compound. Non-specific binding was defined in the presence of 1 μM unlabeled compound. Reactions were transferred and filtered through 96-well glass fiber/C filter plates presoaked with 0.5% polyethylene imine. The filtered reactions were washed 5 times with 200 μL ice cold buffer containing 0.25% BSA. Bound radioactivity was determined by liquid scintillation counting.
For saturation experiments, non-specific binding was subtracted from total binding to provide specific binding and these values were recalculated in terms of pmol ligand bound per mg protein. Saturation curves were constructed and dissociation constants were calculated using the single site ligand binding model: Beq=(Bmax*X)/(X+Kd), where Beq is the amount of ligand bound at equilibrium, Bmax is the maximum receptor density, Kd is the dissociation constant for the ligand, and X is the free ligand concentration. For competition studies percent inhibition was determined and IC50 values were calculated using a 4 parameter logistic model (% inhibition=(A+((B−A)/(1+((x/C)^D)))) using XLfit, where A and B are the maximal and minimum inhibition respectively, C is the IC50 concentration and D is the (Hill) slope.
Example 39B. Tritiated Compound Binding to Membranes Isolated from Cells that Heterologous Express hNav1.7 and the β1 Subunit
Following the procedure described in Example 39A, and making modifications as required to: centrifuge supernatants at 100000×g instead of 10000×g; re-suspend pellets in a buffer containing 0.01% BSA in addition to 100 mM NaCl, 20 mM Tris HCl, pH 7.4 buffer, and 1% v/v […]; and storing membranes at −80° C. in single use aliquots instead of pooled.
Saturation experiments: Following the procedure described in Example 243A, and making modifications as required to incubate [3H]compound for 3 hours instead of 18 hours. […]

hNav1.7 [2] = biological target: T1, hNav1.7; assay: Electrophysiological assay (EP), voltage clamp on Syncropatch 384PE; format: cell-based; details: CHO cells expressing Nav1.7, holding potential −50 mV, 7.5 min compound incubation; read-out: EP_SP hNav1.7 EVO IC50
Description: Example 39C. Electrophysiological Assay (EP) (In Vitro Assay)
Patch voltage clamp electrophysiology allows for the direct measurement and quantification of block of voltage-gated sodium channels (NaV's), and allows the determination of the time- and voltage-dependence of block which has been interpreted as differential binding to the resting, open, and inactivated states of the sodium channel (Hille, B., Journal of General Physiology (1977), 69: 497-515).
The following voltage clamp electrophysiology studies were performed on representative compounds using cells heterologously expressing Nav1.7 or Nav1.5 channels. cDNAs for Nav1.7 (NM_002977) and Nav1.5 (AC137587) were stably expressed in Chinese Hamstr Ovary (CHO) cells and CHL (Chinese Hamster Lung) cells respectively. Sodium currents were measured in the whole-cell configuration using Syncropatch 384PE (Nanlon Technologies, Germany). 1NPC®-384 chips with custom medium resistance and single hole mode are used. Internal solution consists of (in mM): 110 […], 10 CsCl, 20 EGTA, and 10 Hepes (pH adjusted to 7.2); and external solution contains (in mM): 60 NMDG, 80 NaCl, 4 KCl, 1 MgCl2, 2 CaCl2, 2 D-Glucose monohydrate, 10 Hepes (pH adjusted to 7.4 with NaOH).
After system flushing, testing compounds are dissolved in external solution containing 0.1% Pluronic F-127. The chip is moved into the measuring head and the instrument primes the chip with external and internal solutions. 10 l cells are added to the chip from a cell hotel, and a negative pressure of −50 mBar is applied to form a seal. Following treatment with seal enhancer solution and wash-off with external solution, negative pressure of −250 mbar is applied for 1 second to achieve the whole-cell configuration, followed by three washing steps in external solution. 20 µl of compounds is added to 40 µl in each well (1:3 dilution of compounds), and after mixing, 20 l is removed so the volume is retained at 40 ul. After approximately 13 minutes recordings, 20 µl/well of 2 uM TTX, or 333 uM Tetracaine (for Nav1.5) is added to achieve full block.
For voltage protocol, an holding potential of −50 mV is applied during the whole experiment. A depolarizing step is applied to −10 mV for 10 ms, followed by a hyperpolarization step to −150 mV for 20 ms to allow channel recovery from inactivation. A second depolarizing step is applied from −150 mV to −10 mV for 10 ms, where currents were measured to derive blocking effects of compounds. Inhibition is determined based on 7.5 min of compound incubation.

Row | SMILES | pIC50 (hNav1.7 [1]) | pIC50 (hNav1.7 [2])
1 | N#Cc1cc(-c2cccc(C(F)(F)F)c2)c(F)cc1N1C(=O)CO[C@H]2CN(S(=O)(=O)Nc3ccon3)CC[C@@H]21 [Example 24, (4aS,8aS)-1-(5-cyano-2-fluoro-3′-(trifluoromethyl)-[1,1′-biphenyl]-4-yl)-N-(isoxazol-3-yl)-2-oxohexahydro-1H-pyrido[3,4-b][1,4]oxazine-6(7H)-sulfonamide] | 5.70 | 6.63
2 | COc1cc(-c2cccc(C(F)(F)F)c2)c(F)cc1N1C(=O)OC[C@@H]2CN(S(=O)(=O)Nc3ccon3)CC[C@H]21 [Example 33, (4aR,8aR)-1-(2-fluoro-5-methoxy-3′-(trifluoromethyl)-[1,1′-biphenyl]-4-yl)-N-(isoxazol-3-yl)-2-oxohexahydro-2H-pyrido[4,3-d][1,3]oxazine-6(4H)-sulfonamide] | 6.95 | 7.98
3 | COc1cc(-c2cccc(OC(F)(F)F)c2)c(F)cc1N1CCO[C@H]2CN(S(=O)(=O)Nc3ccon3)CC[C@@H]21 [Example 32, (4aS,8aS)-1-(2-fluoro-5-methoxy-3′-(trifluoromethoxy)-[1,1′-biphenyl]-4-yl)-N-(isoxazol-3-yl)hexahydro-1H-pyrido[3,4-b][1,4]oxazine-6(7H)-sulfonamide] | 6.83 | 7.96
4 | COc1cc(-c2cccc(C(F)(F)F)c2)c(F)cc1N1CCO[C@H]2CN(S(=O)(=O)Nc3ccncn3)CC[C@@H]21 [Example 28, (4aS,8aS)-1-(2-fluoro-5-methoxy-3′-(trifluoromethyl)-[1,1′-biphenyl]-4-yl)-N-(pyrimidin-4-yl)hexahydro-1H-pyrido[3,4-b][1,4]oxazine-6(7H)-sulfonamide] | 7.58 | 8.68
5 | COc1cc(-c2ccc(F)c(C(F)(F)F)c2)c(F)cc1N1C(=O)CO[C@H]2CN(S(=O)(=O)Nc3ccon3)CC[C@@H]21 [Example 2, (4aS,8aS)-1-(2,4′-difluoro-5-methoxy-3′-(trifluoromethyl)-[1,1′-biphenyl]-4-yl)-N-(isoxazol-3-yl)-2-oxohexahydro-1H-pyrido[3,4-b][1,4]oxazine-6(7H)-sulfonamide] | 7.42 | 9.04
6 | COc1cc(-c2cccc(OC(F)(F)F)c2)c(F)cc1N1CCO[C@@H]2CN(S(=O)(=O)Nc3ccon3)CC[C@H]21 [Example 31, (4aR,8aR)-1-(2-fluoro-5-methoxy-3′-(trifluoromethoxy)-[1,1′-biphenyl]-4-yl)-N-(isoxazol-3-yl)hexahydro-H-pyrido[3,4-b][1,4]oxazine-6(7H)-sulfonamide] | 6.89 | 8.22
7 | COc1cc(-c2cccc(F)c2)c(F)cc1N1C(=O)CO[C@H]2CN(S(=O)(=O)Nc3ccon3)CC[C@@H]21 [Example 10, (4aS,8aS)-1-(2,3′-difluoro-5-methoxy-[1,1′-biphenyl]-4-yl)-N-(isoxazol-3-yl)-2-oxohexahydro-1H-pyrido[3,4-b][1,4]oxazine-6(7H)-sulfonamide] | 6.15 | 7.32
8 | COc1cc(-c2cccc(C(F)(F)F)c2)cc(F)c1N1C(=O)CO[C@@H]2CN(S(=O)(=O)Nc3ccon3)CC[C@H]21 [Example 19, (4aR,8aR)-1-(3-fluoro-5-methoxy-3′-(trifluoromethyl)-[1,1′-biphenyl]-4-yl)-N-(isoxazol-3-yl)-2-oxohexahydro-1H-pyrido[3,4-b][1,4]oxazine-6(7H)-sulfonamide] | 6.08 | 7.30
9 | COc1cc(-c2cccc(C(F)(F)F)c2)c(F)cc1N1C(=O)CO[C@H]2CN(S(=O)(=O)Nc3ccon3)CC[C@@H]21 [Example 4, (4aS,8aS)-1-(2-fluoro-5-methoxy-3′-(trifluoromethyl)-[1,1′-biphenyl]-4-yl)-N-(isoxazol-3-yl)-2-oxohexahydro-1H-pyrido[3,4-b][1,4]oxazine-6(7H)-sulfonamide] | 7.22 | 8.45
10 | COc1cc(-c2cc(F)cc(C(F)(F)F)c2)c(F)cc1N1C(=O)CO[C@H]2CN(S(=O)(=O)Nc3ccon3)CC[C@@H]21 [Example 6, (4aS,8aS)-1-(2,3′-difluoro-5-methoxy-5′-(trifluoromethyl)-[1,1′-biphenyl]-4-yl)-N-(isoxazol-3-yl)-2-oxohexahydro-1H-pyrido[3,4-b][1,4]oxazine-6(7H)-sulfonamide] | 7.28 | 8.74
11 | COc1cc(-c2cccc(C(F)(F)F)c2)ccc1N1C(=O)CO[C@@H]2CN(S(=O)(=O)Nc3ccon3)CC[C@H]21 [Example 17, (4aR,8aR)-N-(isoxazol-3-yl)-1-(3-methoxy-3′-(trifluoromethyl)-[1,1′-biphenyl]-4-yl)-2-oxohexahydro-1H-pyrido[3,4-b][1,4]oxazine-6(7H)-sulfonamide] | 6.67 | 8.22
12 | COc1cc(-c2cccc(C(F)(F)F)c2)c(F)cc1N1CCO[C@H]2CN(S(=O)(=O)Nc3ccon3)CC[C@@H]21 [Example 26, (4aS,8aS)-1-(2-fluoro-5-methoxy-3′-(trifluoromethyl)-[1,1′-biphenyl]-4-yl)-N-(isoxazol-3-yl)hexahydro-1H-pyrido[3,4-b][1,4]oxazine-6(7H)-sulfonamide] | 7.20 | 7.97
13 | COc1cc(-c2cccc(C(F)(F)F)c2F)c(F)cc1N1C(=O)CO[C@H]2CN(S(=O)(=O)Nc3ccon3)CC[C@@H]21 [Example 12, (4aS,8aS)-1-(2,2′-difluoro-5-methoxy-3′-(trifluoromethyl)-[1,1′-biphenyl]-4-yl)-N-(isoxazol-3-yl)-2-oxohexahydro-1H-pyrido[3,4-b][1,4]oxazine-6(7H)-sulfonamide] | 6.88 | 8.17

— patent US10947251B2, “Therapeutic compounds and methods of use thereof” (GENENTECH, INC., priority 2018, dated 2021)
